Source: patent US11419854B2, “Medicament containing pemafibrate” (KOWA COMPANY, LTD., priority 2017, dated 2022)

Legend:
[1] = literature statement; cited from earlier work
[2] = Pharmacokinetic study of pemafibrate in liver cirrhosis patients (plasma unchanged pemafibrate, LC-MS-MS); assay type: in vivo, human; conditions: for AUC0-t, ratio of geometric mean to persons with normal liver function / Cmax, ratio of geometric mean to persons with normal liver function: single oral dose 0.2 mg, fasting
Procedure: To investigate the effect of liver cirrhosis on the pharmacokinetics of pemafibrate, a clinical study was conducted on mild liver cirrhosis patients, moderate liver cirrhosis patients, fatty liver patients, and persons with normal liver function.
Subjects were classified into four groups according to the criteria in Table 2. As a result, the subjects included 8 mild liver cirrhosis patients, 6 moderate liver cirrhosis, patients, 10 fatty liver patients, and 8 persons with normal liver function.
2. Test Method (1) Administration and Measurement Subjects received a single oral dose of 0.2 mg of study drug (pemafibrate) in the fasting state (fasting for at least 10 hours).
Blood samples were collected at a total of 16 time points immediately before administration of the investigational product and 0.25, 0.5, 1, 1.5, 2, 3, 4, 6, 8, 10, 12, 16, 24, 36, and 48 hours after administration of the investigational product, and plasma concentrations of unchanged pemafibrate were measured by high performance liquid chromatography/tandem mass spectrometry (High-Performance Liquid Chromatography/Tandem Mass Spectrometry: LC-MS-MS method).
To investigate the pharmacokinetics, the pharmacokinetic parameters (maximum concentration (Cmax) and area under the concentration-time curves […] (AUC0-t) of unchanged pemafibrate were evaluated by calculating the ratio of the geometric mean values of the groups of patients with hepatic dysfunction to those with normal hepatic function and their 90% confidence intervals.

[3] = fatty liver patients (n = 10) vs normal liver function (n = 8), plasma unchanged pemafibrate
[4] = mild liver cirrhosis Child-Pugh class A (n = 8) vs normal liver function (n = 8)
[5] = moderate liver cirrhosis Child-Pugh class B (n = 6) vs normal liver function (n = 8)

| geometric mean values of Cmax and AUC0-t compared with the liver function normal group ([2]; fatty liver patient group) | AUC0-t, ratio of geometric mean to persons with normal liver function [2, 3] | Cmax, ratio of geometric mean to persons with normal liver function [2, 3] | AUC0-t, ratio of geometric mean to persons with normal liver function [2, 4] | Cmax, ratio of geometric mean to persons with normal liver function [2, 4] | ratio of geometric mean values of Cmax and AUC0-t, liver cirrhosis patients to persons with normal liver function ([2]; mild liver cirrhosis patients (Child-Pugh Class A)) | AUC0-t, ratio of geometric mean to persons with normal liver function [2, 5] | Cmax, ratio of geometric mean to persons with normal liver function [2, 5] | ratio of geometric mean values of Cmax and AUC0-t, liver cirrhosis patients to persons with normal liver function ([2]; moderate liver cirrhosis patients (Child-Pugh Class B)) | SMILES | route of excretion [1] |
| --- | --- | --- | --- | --- | --- | --- | --- | --- | --- | --- |
| – | – | – | – | – | – | – | – | – | CC(C)(Oc1ccc(CCNC(=O)c2ccc(Cl)cc2)cc1)C(=O)O [bezafibrate] | excreted in the urine primarily via kidneys |
| about 1.2 times | 1.194 | 1.198 | 2.076 | 2.329 | approximately 2 fold | 4.191 | 3.882 | approximately 4 fold | CC[C@@H](Oc1cccc(CN(CCCOc2ccc(OC)cc2)c2nc3ccccc3o2)c1)C(=O)O [pemafibrate, (2R)-2-[3-({1,3-benzoxazol-2-yl[3-(4-methoxyphenoxy)propyl]amino}methyl)phenoxy]butanoic acid] | rarely excreted via kidneys |
